Results taken from patent publication US7285567B2, “Halogenated benzamide derivatives” (Romark Laboratories, L.C., priority 2005, dated 2007).
Converted amounts (≈) assume the structure as drawn. Where two headings read alike, the source gives them in different places.

Key:
[1] = tested on: anaerobic bacteria (all 142 isolates); test: CLSI agar dilution MIC, all anaerobic clinical isolates; assay type: cell-based; conditions: for MIC50 / MIC90: All (142 isolates), agar dilution, 48 h; for Activity against anaerobic bacteria groups (summary in words): summary of MIC results
[2] = tested on: anaerobic Gram-positive non-sporeforming rods; test: CLSI agar dilution MIC, anaerobic clinical isolates; assay type: cell-based; conditions: Gram + rods (14 isolates), 48 h
[3] = tested on: anaerobic Gram positive cocci; test: as above; assay type: cell-based; conditions: Gram + cocci (16 isolates), 48 h
Prevotella/Porphyromonas = test: as above; assay type: cell-based; conditions: Prev/Porphy (26 isolates), 48 h
Procedure: (§1) Methods. Recent clinical anaerobic isolates (2000 to date) comprised 40 B. fragilis group, 26 Prevotella/Porphyromonas, 28 fusobacteria, 16 anaerobic Gram positive cocci, 14 anaerobic Gram-positive non-sporeforming rods and 18 clostridia. CLSI agar dilution MIC methodology with enriched Brucella blood agar and inocula of 1×10^5 cfu/spot was used. Plates were incubated in an anaerobic glove box at 35° C. for 48 h. Results.

B. fragilis group = test: as above; assay type: cell-based; conditions: Bacteroides fragilis, B. fragilis gp (40 isolates), 48 h, 35° C.
Procedure: as §1

fusobacteria = test: as above; assay type: cell-based; conditions: Fusobacteria (28 isolates), 48 h
Procedure: as §1

clostridia = test: organism not typed; assay type: cell-based; conditions: 48 h
Hepatitis B Virus (HBV) = test: HBV replication in 2.2.15 cell culture, 9-day assay; assay type: cell-based; conditions: for EC50 / EC90: Hepatitis B virus
Procedure: (§2) Anti-Hepatitis B Virus (HBV) analyses and an assessment of cytotoxicity were performed in a 9-day assay in the chronically-producing HBV human hepatoblastoma cell line, 2.2.15, as previously described (Korba, B. E. & Gerin, J. L. Use of a standardized cell culture assay to assess activities of nucleosides analogues against hepatitis B virus replication. Antivir. Res. 19, 55-70 (1992)).
(§3) Values presented (±standard deviations [S.D.]) were calculated by linear regression analysis using data combined from all treated cultures. S.D. were calculated using the standard error of regression generated from linear regression analyses (QuattroPro™). EC50, EC90=drug concentration at which a 2-fold, or a 10-fold depression of HBV DNA (relative to the average levels in untreated cultures), respectively, was observed, CC50=drug concentration at which a 2-fold depression of neutral red dye uptake (relative to the average levels in untreated cultures) was observed, The EC90 values were used for the calculation of the Selectivity Indexes [S.I.] since at least a 3-fold depression of HBV levels is typically required to achieve statistical significance in this assay system. HBV R.I.=intracellular HBV DNA replication intermediate.

[4] = Cytotoxicity in 2.2.15 cells (neutral red dye uptake); assay type: cell-based; conditions: human, 2-fold depression of neutral red dye uptake
Procedure: as §2, §3

[5] = tested on: H3N2 influenza virus, type A; test: Multiple cycle CPE inhibition assay on MDCK cell monolayers; assay type: cell-based; conditions: 0% EMEM + Hepes + Trypsin
Procedure: (§4) EC50 (μg/mL) values for 2-(acetolyloxy)-3-methyl-N-(5-bromo-2-thiazolyl)benzamide (RM4803), 2-(acetolyloxy)-3-methyl-N-(5-chloro-2-thiazolyl)benzamide (RM4804), and 2-(acetolyloxy)-3-methoxy-N-(5-bromo-2-thiazolyl)benzamide (RM4806), on Human Rhinovirus Type 39 (HRV-39), and H3N2 influenza virus, type A, using a multiple cycle CPE inhibition assay on OH-I Hela and Madin Darby Canine Kidney (MDCK) cell monolayers, respectively, were measured by microscopic and spectrophotometric methods. Pirodavir and Oseltamivir were included as positive controls.

[6] = tested on: Human Rhinovirus Type 39 (HRV-39); test: Multiple cycle CPE inhibition assay on OH-I Hela cell monolayers; assay type: cell-based; conditions: Rhinovirus A, HRV39, HRV-39, OH-Hela, 2% McCoys + Hepes Buffer
Procedure: as §4

Giardia intestinalis = test: Antiparasite test by conventional means; assay type: cell-based; conditions: at concentrations of at least 50 μg/mL
Procedure: (§5) The above identified compounds according to Formula (IV) were tested by conventional means against Trichomis vaginalis, Giardia Intestinalis, and Trypanosoma brucei.

Trypanosoma brucei = test: Antiparasite test by conventional means; assay type: cell-based; conditions: at concentrations of at least 50 μg/mL
Procedure: as §5

Trichomonas vaginalis = test: Antiparasite test by conventional means; assay type: cell-based; conditions: at concentrations of at least 50 μg/mL
Procedure: as §5

Neospora spp. = test: Efficacy against intracellular protozoa
Cryptosporidium spp. = test: Efficacy against intracellular protozoa
[7] = tested on: Paramyxovirus: Sendai virus; test: microbe, parasite or virus in culture; assay type: cell-based; conditions: Respirovirus muris; Sendai virus in cell culture (Table 2)
Sarcocystis neurona = test: Efficacy against intracellular protozoa
[8] = tested on: hepatitis C virus (HCV) replicon; test: HCV replication in AVA5 replicon cell culture, 3-day assay; assay type: cell-based
Procedure: (§6) Anti-Hepatitis C Virus (HCV) analyses and an assessment of cytotoxicity were performed in a 3-day assay in the HCV replicon-containing human hepatoblastoma cell line, AVA5 (Okuse, C., Rinaudo, J. A., Farrar, K., Wells, F. & Korba, B. E. Enhancement of antiviral activity against hepatitis C virus in vitro by interferon combination therapy. Antivir. Res. 65, 23-34 (2005)) as previously described (Blight, K. J., Kolykhalov, A. A. & Rice, C. M. Efficient initiation of HCV RNA replication in cell culture. Science 290, 1972-1974 (2000)).
(§7) Values presented (±standard deviations [S.D.]) were calculated by linear regression analysis using data combined from all treated cultures. S.D. were calculated using the standard error of regression generated from the linear regression analyses (QuattroPro™). EC50, EC90=drug concentration at which a 2-fold, or a 10-fold depression of HCV RNA (relative to the average levels in untreated cultures), respectively, was observed. CC50=drug concentration at which a 2-fold depression of neutral red dye uptake was observed relative to the average levels in untreated cultures. Selectivity index=CC50/EC50.

[9] = Cytotoxicity in AVA5 cells (neutral red dye uptake); assay type: cell-based, human; conditions: human, 2-fold depression of neutral red dye uptake
Procedure: as §6, §7

[10] = Clostridia (18 isolates), agar dilution, read-out: MIC50
[11] = microscopic reading, read-out: EC50, Microscopic
[12] = spectrophotometric reading, read-out: EC50, Spectrophotometer

CCC[C@@H]1C[C@@H](C(=O)N[C@@H]([C@H]2O[C@H](SC)[C@H](O)[C@@H](O)[C@H]2O)[C@H](C)Cl)N(C)C1 [Clindamycin]
MIC50 [1]: 0.125 µg/mL (≈ 0.294 µM) | MIC90 [1]: 8 µg/mL (≈ 18.8 µM) | MIC50 [2]: 0.125 µg/mL | MIC90 [2]: 4 µg/mL | MIC50 [3]: 0.125 µg/mL | MIC90 [3]: 0.5 µg/mL | MIC50 (Prevotella/Porphyromonas): ≤ 0.015 µg/mL | MIC90 (Prevotella/Porphyromonas): ≤ 0.015 µg/mL | MIC50 (B. fragilis group): 2 µg/mL (≈ 4.71 µM) | MIC90 (B. fragilis group): > 32 µg/mL | MIC50 (fusobacteria): 0.06 µg/mL (≈ 0.141 µM) | MIC90 (fusobacteria): 0.125 µg/mL (≈ 0.294 µM) | MIC50 (clostridia): 1 µg/mL (≈ 2.35 µM) | MIC90 (clostridia): > 32 µg/mL

Nc1ccn([C@@H]2CS[C@H](CO)O2)c(=O)n1 [Lamivudine, reference compound]
EC50 (Hepatitis B Virus (HBV); read-out: Extracellular Virion DNA EC50): 0.058 ± 0.006 µM | EC90 (Hepatitis B Virus (HBV); read-out: Extracellular Virion DNA EC90): 0.164 ± 0.015 µM | EC50 (Hepatitis B Virus (HBV); read-out: Intracellular HBV R.I. EC50): 0.172 ± 0.02 µM | EC90 (Hepatitis B Virus (HBV); read-out: Intracellular HBV R.I. EC90): 0.66 ± 0.068 µM | Selectivity Index R.I. (Hepatitis B Virus (HBV); calculated with EC90 values (CC50/EC90), HBV R.I.): 3377 | Selectivity Index Virion (Hepatitis B Virus (HBV); calculated with EC90 values (CC50/EC90), virion DNA): 12959 | CC50 at 9 day [4]: 2230 ± 76 µM

Cc1ncc([N+](=O)[O-])n1CCO [Metronidazole]
MIC50 [1]: 1 µg/mL (≈ 5.84 µM) | MIC90 [1]: 2 µg/mL (≈ 11.7 µM) | MIC50 [2]: > 16 µg/mL | MIC90 [2]: > 16 µg/mL | MIC50 [3]: 0.5 µg/mL | MIC90 [3]: 1 µg/mL | MIC50 (Prevotella/Porphyromonas): 0.5 µg/mL (≈ 2.92 µM) | MIC50 (B. fragilis group): 1 µg/mL (≈ 5.84 µM) | MIC90 (B. fragilis group): 2 µg/mL (≈ 11.7 µM) | MIC50 (fusobacteria): 0.25 µg/mL (≈ 1.46 µM) | MIC90 (fusobacteria): 0.25 µg/mL (≈ 1.46 µM)

CC(=O)Oc1ccccc1C(=O)Nc1ncc([N+](=O)[O-])s1 [Nitazoxanide, 2-(acetolyloxy)-N-(5-nitro-2-thiazolyl) benzamide]
MIC50 [1]: 2 µg/mL (≈ 6.51 µM) | MIC90 [1]: 4 µg/mL (≈ 13 µM) | Activity against anaerobic bacteria groups (summary in words) [1]: potent against all anaerobic bacteria groups except for Gram-positive anaerobic rods | MIC50 [2]: 16 µg/mL | MIC90 [2]: > 32 µg/mL | MIC50 [3]: 0.5 µg/mL | MIC90 [3]: 2 µg/mL | MIC50 (Prevotella/Porphyromonas): 4 µg/mL (≈ 13 µM) | MIC90 (Prevotella/Porphyromonas): 8 µg/mL (≈ 26 µM) | MIC50 (B. fragilis group): 2 µg/mL (≈ 6.51 µM) | MIC90 (B. fragilis group): 4 µg/mL (≈ 13 µM) | MIC50 (fusobacteria): 1 µg/mL (≈ 3.25 µM) | MIC50 (clostridia; [10]): 0.5 µg/mL (≈ 1.63 µM)

CCOC(=O)C1=C[C@@H](OC(CC)CC)[C@H](NC(C)=O)[C@@H](N)C1 [Oseltamivir, reference compound]
EC50 [5, 11]: 0.13 to 0.17 µg/mL | EC50 [5, 12]: 0.08 to 0.36 µg/mL

CCOC(=O)c1ccc(OCCC2CCN(c3ccc(C)nn3)CC2)cc1 [Pirodavir, reference compound]
EC50 [6, 11]: 0.007 µg/mL | EC50 [6, 12]: 0.004 µg/mL

CC(=O)Oc1c(C)cccc1C(=O)Nc1ncc(Cl)s1 [RM-4804, 2-(acetolyloxy)-3-methyl-N-(5-chloro-2-thiazolyl)benzamide]
EC50 [6, 11]: 0.57 µg/mL | EC50 [6, 12]: 0.32 µg/mL | antiparasite activity (Giardia intestinalis): failed to exhibit antiparasite activitity | antiparasite activity (Trypanosoma brucei): failed to exhibit antiparasite activitity | antiparasite activity (Trichomonas vaginalis): failed to exhibit antiparasite activitity | EC50 [5, 11]: 0.93 µg/mL | EC50 [5, 12]: 0.57 µg/mL

COc1cccc(C(=O)Nc2ncc(Br)s2)c1OC(C)=O [RM-4806, 2-(acetolyloxy)-3-methoxy-N-(5-bromo-2-thiazolyl)benzamide]
EC50 [6, 11]: 5 µg/mL | EC50 [6, 12]: 4 µg/mL | antiparasite activity (Giardia intestinalis): failed to exhibit antiparasite activitity | antiparasite activity (Trypanosoma brucei): failed to exhibit antiparasite activitity | antiparasite activity (Trichomonas vaginalis): failed to exhibit antiparasite activitity | EC50 [5, 11]: 0.46 µg/mL | EC50 [5, 12]: 0.57 µg/mL

CC(=O)Oc1ccccc1C(=O)Nc1ncc(Br)s1 [RM-4820, 2-(acetolyloxy)-N-(5-bromo-2-thiazolyl)benzamide]
efficacy against intracellular protozoa (Neospora spp.): effective | efficacy against intracellular protozoa (Cryptosporidium spp.): effective | EC50 [7]: 0.34 µM | efficacy against intracellular protozoa (Sarcocystis neurona): effective

CC(=O)Oc1ccc(C)cc1C(=O)Nc1ncc(Br)s1 [RM-4821]
efficacy against intracellular protozoa (Neospora spp.): effective | efficacy against intracellular protozoa (Cryptosporidium spp.): effective | EC50 [7]: 0.36 µM | efficacy against intracellular protozoa (Sarcocystis neurona): effective

CC(=O)Oc1cc(C)ccc1C(=O)Nc1ncc(Br)s1 [RM-4822]
efficacy against intracellular protozoa (Neospora spp.): effective | efficacy against intracellular protozoa (Cryptosporidium spp.): effective | EC50 [7]: 0.36 µM | efficacy against intracellular protozoa (Sarcocystis neurona): effective

NC(=O)c1ncn([C@@H]2O[C@H](CO)[C@@H](O)[C@H]2O)n1 [Ribavirin, reference compound]
Selectivity Index ([8]; AVA5 cells, CC50/EC50): 0.6 | EC50 ([8]; Hepatitis C virus, Ava5): 94 ± 10 µM | EC90 ([8]; Hepatitis C virus, Ava5): > 100 µM | CC50 at 3 day [9]: 61 ± 2.9 µM

O=C(Nc1ncc([N+](=O)[O-])s1)c1ccccc1O [Tizoxanide]
MIC50 [1]: 2 µg/mL (≈ 7.54 µM) | MIC90 [1]: 4 µg/mL (≈ 15.1 µM) | Activity against anaerobic bacteria groups (summary in words) [1]: potent against all anaerobic bacteria groups except for Gram-positive anaerobic rods | MIC50 [2]: 8 µg/mL | MIC90 [2]: > 32 µg/mL | MIC50 [3]: 0.5 µg/mL | MIC90 [3]: 1 µg/mL | MIC90 (Prevotella/Porphyromonas): 16 µg/mL (≈ 60.3 µM) | MIC50 (B. fragilis group): 2 µg/mL (≈ 7.54 µM) | MIC90 (B. fragilis group): 4 µg/mL (≈ 15.1 µM) | MIC50 (fusobacteria): 0.5 µg/mL (≈ 1.89 µM) | MIC90 (fusobacteria): 2 µg/mL (≈ 7.54 µM) | MIC50 (clostridia; [10]): 0.25 µg/mL (≈ 0.943 µM)
